This is an account of results in patent US4027014A, “Antibiotic BN-130 substances and the production thereof” (Meiji Seika Kaisha, Ltd., priority 1974, dated 1977).

In the assay the test system is BN-130 strain. Nature of the assay: Susceptibility of the BN-130 strain to antibiotics. Type of assay: cell-based, Pseudomonas stutzeri.

Turning to `NC[C@H]1O[C@H](O[C@H]2[C@H](O)[C@@H](O[C@H]3O[C@H](CO)[C@@H](O)[C@H](N)[C@H]3O)[C@H](N)C[C@@H]2N)[C@H](O)[C@@H](O)[C@@H]1O` [kanamycin], the Susceptibility to antibiotics result is “Susceptible to a medium degree”. With `O=C(N[C@H](CO)[C@H](O)c1ccc([N+](=O)[O-])cc1)C(Cl)Cl` [Chloramphenicol], the Susceptibility to antibiotics entry is listed as “Susceptible to a medium degree”. As to `CC1(C)S[C@@H]2[C@H](NC(=O)[C@H](N)c3ccccc3)C(=O)N2[C@H]1C(=O)O` [aminobenzylpenicillin], the Susceptibility to antibiotics result is recorded as “Resistant”. As to `CC1(C)S[C@@H]2[C@H](NC(=O)Cc3ccccc3)C(=O)N2[C@H]1C(=O)O` [Penicillin], the Susceptibility to antibiotics result is “Resistant”. Take polymixin: the Susceptibility to antibiotics entry is on record as “Susceptible”. For `CN(C)[C@@H]1C(O)=C(C(N)=O)C(=O)[C@@]2(O)C(O)=C3C(=O)c4c(O)cccc4[C@@](C)(O)[C@H]3C[C@@H]12` [Tetracycline], the Susceptibility to antibiotics entry is “Susceptible”.

As to `[H]/N=C(/N)N[C@H]1[C@H](O)[C@@H](O)[C@H](O[C@@H]2O[C@@H](C)[C@](O)(C=O)[C@H]2O[C@@H]2O[C@@H](CO)[C@H](O)[C@@H](O)[C@@H]2NC)[C@@H](N/C(N)=N\[H])[C@@H]1O` [streptomycin], the Susceptibility to antibiotics entry is listed as “Susceptible to a medium degree”. The value for `CCn1cc(C(=O)O)c(=O)c2ccc(C)nc21` [nalidixic acid] was “Susceptible”.

Regarding colistin, the Susceptibility to antibiotics result was “Susceptible”. Next, `O=C(Cc1cccs1)N[C@@H]1C(=O)N2C(C(=O)[O-])=C(C[n+]3ccccc3)CS[C@H]12` [cephaloridine]: “Resistant”.
